Data: article PMC10810264 (Microchemical journal : devoted to the application of …, 2023)
≈ marks a conversion by molar mass, not a printed value.

tested on: anti-GEN scFv-AP fusion protein; assay: direct competitive chemiluminescent enzyme immunoassay; format: binding, murine; conditions: dcCLEIA; CR=[IC50(gentamicin)/IC50(analyte)]×100%

| Compound | Cross-reactivity [%] |
| --- | --- |
| CC1(C)S[C@@H]2[C@H](NC(=O)[C@H](N)c3ccccc3)C(=O)N2[C@H]1C(=O)O [Ampicillin] | <0.10 |
| O=C(N[C@H](CO)[C@H](O)c1ccc([N+](=O)[O-])cc1)C(Cl)Cl [Chloramphenicol] | <0.10 |
| CNC(C)C1CCC(N)C(OC2C(N)CC(N)C(OC3OCC(C)(O)C(NC)C3O)C2O)O1 (stereo not shown) [Gentamicin] | 100 |
| [H]/N=C(/N)N[C@H]1[C@H](O)[C@@H](O)[C@H](O[C@@H]2O[C@@H](C)[C@](O)(C=O)[C@H]2O[C@@H]2O[C@@H](CO)[C@H](O)[C@@H](O)[C@@H]2NC)[C@@H](N/C(N)=N\[H])[C@@H]1O [Streptomycin] | <0.10 |
| NC[C@H]1O[C@H](O[C@H]2[C@H](O)[C@@H](O[C@H]3O[C@H](CO)[C@@H](O)[C@H](N)[C@H]3O)[C@H](N)C[C@@H]2N)[C@H](O)[C@@H](O)[C@@H]1O [kanamycin] | <0.10 |
| Neomycin | <0.10 |

tested on: anti-GEN scFv-AP fusion protein; assay: direct competitive ELISA; format: binding, murine; conditions: dcELISA, AP substrate p-nitrophenyl phosphate, OD 405 nm

| Compound | IC50 [ng/mL] |
| --- | --- |
| CNC(C)C1CCC(N)C(OC2C(N)CC(N)C(OC3OCC(C)(O)C(NC)C3O)C2O)O1 (stereo not shown) [Gentamicin] | 7.693 (≈ 0.0161 µM) |
